Measured values reported in ChEMBL document CHEMBL4371096, “Polyoxygenated Cyclohexenes and Their Chlorinated Derivatives from the Leaves of Uvaria cherrevensis” (J Nat Prod, 2019).

Experiments:
Vero = experiment: Cytotoxicity against African green monkey Vero cells; assay type: cell-based; conditions: Chlorocebus sabaeus
Plasmodium falciparum [1] = experiment: Antimalarial activity against drug-resistant Plasmodium falciparum K1CB1 after 48 hrs by SYBR Green1 dye based fluorescence assay; assay type: functional, organism-based; conditions: K1CB1, 48 h
Plasmodium falciparum [2] = experiment: Antimalarial activity against drug-sensitive Plasmodium falciparum TM4/8.2 after 48 hrs by SYBR Green1 dye based fluorescence assay; assay type: functional, organism-based; conditions: TM4/8.2, 48 h
KB = experiment: Cytotoxicity against human KB cells; assay type: functional, cell-based

Measured: IC50

CC1(C)O[C@H]2C=C[C@@H](OC(=O)c3ccccc3)[C@H](O)[C@@]2(COC(=O)c2ccccc2)O1
> 50 µM: all assays above

O=C(OC[C@]1(O)[C@H](OC(=O)c2ccccc2)C=C[C@@H](OC(=O)c2ccccc2)[C@@H]1O)c1ccccc1
> 50 µM: all assays above

O=C(OCC1=C[C@H]2Oc3ccccc3C[C@H]2[C@@H](OC(=O)c2ccccc2)[C@@H]1O)c1ccccc1
> 50 µM: all assays above

CC(=O)O[C@H]1C=CC=C(COC(=O)c2ccccc2)[C@@H]1O
> 50 µM: all assays above

O=C(OC[C@]1(O)[C@H](Cl)C=C[C@@H](OC(=O)c2ccccc2)[C@@H]1O)c1ccccc1
> 50 µM: all assays above

O=C(OCC1=C[C@@H](O)[C@H](O)[C@H](OC(=O)c2ccccc2)[C@H]1O)c1ccccc1
> 50 µM: all assays above

O=C(OC[C@]1(O)[C@H](Cl)C=C[C@H](O)[C@H]1O)c1ccccc1
> 50 µM: all assays above

CC(=O)O[C@H]1C=C[C@@H](Cl)[C@@](O)(COC(=O)c2ccccc2)[C@@H]1O
> 50 µM: all assays above

O=C(OC[C@]12O[C@H]1C=C[C@@H](OC(=O)c1ccccc1)[C@H]2O)c1ccccc1
> 50 µM: all assays above

O=C(OC[C@]1(O)[C@@H](O)C=C[C@@H](O)[C@@H]1O)c1ccccc1
> 50 µM: all assays above

CC(=O)O[C@H]1C=CC=C[C@@]1(O)COC(=O)c1ccccc1
> 50 µM: all assays above

CC(=O)O[C@H]1C=C[C@@H](O)[C@H](O)[C@@]1(O)COC(=O)c1ccccc1
> 50 µM: all assays above

CC(=O)O[C@@H]1C=C[C@@H](OC(=O)c2ccccc2)[C@H](O)[C@]1(O)COC(=O)c1ccccc1
> 50 µM: all assays above

O=C(OC/C=C/C=C/[C@H](O)COC(=O)c1ccccc1)c1ccccc1
> 50 µM: all assays above

COc1ccc2c(c1)C[C@H]1[C@@H](OC(=O)c3ccccc3)[C@H](O)C(COC(=O)c3ccccc3)=C[C@H]1O2
> 50 µM: all assays above
